Measurements taken from patent EP0897720A1, “Droloxifene for prevention of breast cancer” (Pfizer Products Inc., priority 1997, dated 1999).

Experiments:
[1] = test system: puberal, female sprague-Dawley rats; experiment: Anti-uterotrophic effect (modified Dorfman Test); format: in vivo; conditions: 3 mg./kg./day by stomach tube, six times weekly over 21 days, 0.25% aqueous agar suspension
Experimental: The anti-uterotrophic effect was determined according to a modified "Dorfman Test" [R. I. Dorfman, Methods in Hormone Research II, p. […]

[2] = test system: epithelial cells of the uterus; conditions: stated as a known side-effect of earlier anti-estrogens; cited from earlier work
[3] = test system: 7,12-dimethylbenz(a)anthraceneinduced mammary tumor; experiment: Inhibitory effect on the mammary tumor (DMBA-induced tumor model); format: in vivo, female Sprague-Dawley rat (Hanover breed); conditions: 3 mg./kg./day by stomach tube, six times weekly over 28 days; control animals taken as 100%
Experimental: Twice weekly and on the 28th day of testing the number of animals was determined and the tumor surface (mm^2/animal) of the therapy animals and control animals was measured. At the end of testing, the percentage increase of the average tumor surface of the treated animals was determined in comparison to the control animals, the surface of the latter being taken as 100%.

| SMILES | Uterine Weight compared to Controlled Animals [1] [%] | abnormal growth of uterine epithelial cells [2] | Relative Increase of the Average Tumor Surface [3] [%] |
| --- | --- | --- | --- |
| CC/C(=C(/c1ccc(OCCNC)cc1)c1cccc(O)c1)c1ccccc1 [Compound 3] | -53 |  |  |
| CC/C(=C(/c1ccc(OCCN(CC)CC)cc1)c1cccc(O)c1)c1ccccc1 [Compound 2] | -39 |  |  |
| CC/C(=C(\c1ccccc1)c1ccc(OCCN(C)C)cc1)c1ccccc1 [Tamoxifen, reference compound] | -40 | causes abnormal growth of uterine epithelial cells |  |
| CC/C(=C(/c1ccc(OCCN(C)C)cc1)c1cccc(O)c1)c1ccccc1 [Compound 1, 1-[4'-(2-dimethylaminoethoxy)phenyl]-1-(3'-hydroxyphenyl)-2-phenylbut-1-ene] | -42 |  | 23 |
